Experimental findings from US20110262497A1, “NOVEL EZETIMIBE FORMULATIONS” (LEK Pharmaceuticals D.D., priority 2008, published 2011) are described below.

The data set is described as follows: solubility of ezetimibe in water. Type of data set: physicochemical.

Molecules are shown by their SMILES.

Usually solubility stands for the dissolved amount per volume that the medium holds. With `O=C1[C@H](CC[C@H](O)c2ccc(F)cc2)[C@@H](c2ccc(O)cc2)N1c1ccc(F)cc1` [ezetimibe, 1-(4-fluorophenyl)-3(R)-[3-(4-fluorophenyl)-3(S)-hydroxypropyl]-4(S)-(4-hydroxyphenyl)-2-azetidinone], the solubility was less than 10 µg/mL.
